Test results reported in US12059413B2, “Methods of inhibiting viruses using compositions targeting TSG101-ubiquitin interaction” (The Research Foundation for the State University of New York, priority 2016, dated 2024).
One block for each compound: values may come before it.

Assays:
[1] = Conversion of prazoles to sulfenamide / half-life; format: physicochemical
Text: To measure sulfenamide formation: Dissolve each compound in water/buffer and measure the formation of colored compounds by UV-visible absorption, since the initial compound is colorless and the final compound (the sulfenamide dimer) is colored.

[2] = target: T1, Tsg101 UEV domain (Homo sapiens, UniProt Q99816); test: NMR / LC-MS binding of compound to Tsg101 UEV domain
T1 construct: Tsg101 UEV domain (residues 2-145) was encoded in a pET-28b vector; His6-TEV site (N, cleaved yes); made in house; host or cells: E. coli Rosetta 2 (DE3) pLysS
T1 sequence (Q99816 2-145): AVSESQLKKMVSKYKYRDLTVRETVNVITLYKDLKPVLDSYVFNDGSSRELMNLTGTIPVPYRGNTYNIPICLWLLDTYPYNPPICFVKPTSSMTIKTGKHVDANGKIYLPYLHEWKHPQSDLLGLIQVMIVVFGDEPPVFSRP
Method: N16 (20 mM solution, DMSO) was added to Tsg101 UEV domain in a 10:1 ratio (N16 excess).
For binding studies using NMR spectroscopy, the following complexes were made: Tsg101 UEV-N16, UEV-PTAP, UEV-Ub, UEV-N16-PTAP, and UEV-N16-Ub, all in Tsg101 NMR buffer: 20 mM potassium phosphate, 50 mM NaCl, pH 5.8, with UEV concentration of 200 μM.

[3] = target: T2, Tsg101 (Homo sapiens, UniProt Q99816); test: NWU screening / in vitro binding assay
T2 sequence (Q99816 2-145 limits assumed): T1 sequence (Q99816 2-145)
Text: Pantoprazole, Lansoprazole/Dexlansoprazole (dexlansoprazole is the active enantiomer of the racemic lansoprazole), and Rabeprazole were in the NWU screen but were not considered hits.

[4] = test system: 293T cells; test: Metabolic activity, WST-1 assay, 293T cells; format: cell-based; details: metabolic measurements, WST-1 reagent
Method: FIG. 20A-C. N16 inhibition is virus-specific. A) N16 IC50 for Hela and 293T cells. […] Values were calculated by measuring metabolic activity (WST-1 Assay, Roche Applied Science) after cells were grown for 24 hr in N16. Data points represent the mean of 2 assays, 3 time points each for each cell line. […] Values in the absence or presence of N16 (50 uM) were 12% and 13%, respectively). C) N16 effect on EGF-stimulated EFGR degradation. Cells maintained for 24 hr in media containing DMSO alone or DMSO and N16 were stimulated with EGF ligand for a 90 min period and then assessed for EGFR steady-state level by Western analysis. EGFR levels for unstimulated and stimulated sample pairs are shown. A) n=2; B) n=2; C) n=2.
FIG. 27A-C. Effect of N-Acetyl Cysteine (NAC) on N16-mediated inhibition of VLP production and intracellular Gag accumulation. […] A concentration of 3 mM NAC was therefore used to test the effect of the antioxidative reagent on the N16 inhibitory effect. N16 (0, 12, 25, 50, 75, and 100 uM) was added 8.5 hr prior to transfection with pNL4-3ΔEnv. Cells were harvested 16 hr later. […] C) Quantitative analysis. n=2.
Cells were grown in 96-well trays for 24 hr with increasing levels of drug, metabolic activity was measured using WST-1colorimetric assay (Roche), and IC50 values were calculated (Prism 6, Graph Pad Software Inc.).

[5] = target: proteasome (Homo sapiens, UniProt P20618+P28074); details: Gelman et al.; cited from earlier work

slowness of sulfenamide conversion relative to Rabeprazole [1]: ~2 ×
residue bound in Tsg101 UEV (NMR and fluorescence perturbances) [2]: bind to residue C73
binding in the NWU screening assay [3]: bound weakly
Compound: Cc1c(OCC(F)(F)F)ccnc1C[S+]([O-])c1nc2ccccc2[nH]1 (racemic) [Lansoprazole]

concentration up to which 293T cells were robust [4]: at least 4 mM
Compound: CC(=O)N[C@@H](CS)C(=O)O [NAC, N-Acetyl Cysteine]

Compound: CC(C)C[C@H](NC(=O)[C@H](Cc1ccccc1)NC(=O)c1cnccn1)B(O)O [bortezomib]
concentration giving proteasome inhibition, previous studies [5]: ≥ 5 nM
